# Patent US11364219B2, “Methods and pharmaceutical compositions for treating microbiome dysregulations associated with circadian clock disruption” (INSERM (INSTITUT NATIONAL DE LA SANTÉ ET DE LA RECHERCHE …, priority 2016, dated 2022)
# What was measured:
# Csnk2 = Csnk2 inhibitors listed as examples; cited from earlier work
# [1] = test system: mouse embryonic fibroblasts (MEFs); conditions: U0126 treatment, data not shown
# colonic IECs [2] = assay: Colonic IEC proliferation and apoptosis immunostaining (Ki67, caspase-3), wild-type mice; type: in vivo, mouse
# Excerpt: (§1) Mice and reagents. The Nlrp6-3xFlag-IRES-eGFP mouse was generated at the Institut Clinique de la Souris (Illkirch, France; further details available upon request). Age- and gender-matched Nlrp6-deficient (Nlrp6−/−) and control C57BL6/J mice had free access to a standard laboratory chow diet in a half-day light cycle exposure and temperature-controlled environment. All animal studies were approved by the local investigational review board (CEEA232009R) in an accredited establishment (N° B59-108) according to governmental guidelines N° 86/609/CEE. The experimental model of colitis was performed as previously described 10. Tissue and blood sampling was performed under LD conditions, with ZTO being the start of the light period (8 a.m.) and ZT12 the vespertinal crepuscule (8 p.m.). Apigenin (750 μg/mouse; Santa Cruz) was intraperitoneally given twice a week at ZT6 for 1 or 3 weeks period.
# (§2) Immunohistochemistry, Immunofluorescence and histological analysis. Intestinal tissue was fixed in formalin, dehydrated in series of increasing concentration of alcohols and toluene before being embedded in paraffin. For immunohistochemistry, 5 μm-thick tissue sections were placed on Superfrost Plus slides (Thermo Scientific), incubated for 10 min at 60° C. and rehydrated through a series of graded alcohols and distilled water. Endogenous peroxidases were blocked by 3% hydrogen peroxide for 10 min. […]
# DSS-induced colitis [3] = assay: DSS colitis model in wild-type mice pre-treated with apigenin; type: in vivo, mouse
# Excerpt: as §1
# Immunohistochemistry, Immunofluorescence and histological analysis. Intestinal tissue was fixed in formalin, dehydrated in series of increasing concentration of alcohols and toluene before being embedded in paraffin. For immunohistochemistry, 5 μm-thick tissue sections were placed on Superfrost Plus slides (Thermo Scientific), incubated for 10 min at 60° C. and rehydrated through a series of graded alcohols and distilled water. Endogenous peroxidases were blocked by 3% hydrogen peroxide for 10 min. Antigen retrieval was performed in citrate buffer (10 mM, pH 6) by steaming sections in a microwave oven for 20 min. Tissue sections were blocked with 5% BSA/PBS for 30 min at RT and primary Ab against either Ki67 (1:100, ab15580, Abcam), M2 Ab to Flag (1:100, F3165, Sigma) or cleaved caspase3 (1:50, 9661, Cell Signalling) was directly applied and incubated one hour at room temperature (RT) or overnight at 4° C. Slides were washed 3× in PBS before applying either secondary peroxidase-conjugated goat anti-rabbit IgG (1:100, Interchim) or peroxidase conjugated goat anti-mouse IgG (1:100, Interchim) Ab two hours at RT. Targeted antigens were visualized by using 3.3′-diaminobenzidine solution (BD Pharmingen) followed by nuclear counterstain with hematoxylin. Immunofluorescence staining procedure was done by incubation overnight at 4° C. of primary antibody against Lysozyme (A0099, Dako) at 1:1000 according to the protocol provided by Cell Signalling Technology. Secondary Ab (1:200, A11008, Life Technologies) was applied for 1 hour at RT followed by nuclear counterstain with DAPI. Tissue sections were covered by using ProLong® Gold Antifade reagent (Life Technologies). Microscopic analyses were performed by using the Zeiss Axioplan 2 imaging microscope, Axio Imager Z1 microscope, Axiovision software (all from Zeiss, Oberkochen, Germany), and ImageJ software. Staining of cryosections […] was performed to stain GFP on colonic tissue according to manufacturer's instructions (Cell Signaling Technology). Polyclonal rabbit anti-GFP Ab (1/1000, Molecular Probes) and monoclonal rat anti-integrin 6 Ab (1/100, BD Pharmingen) were used as primary Abs and incubated together on the samples for 3 hours at RT. Secondary AF488-coupled goat anti-rabbit Ab and AF594-coupled goat anti-rat Ab (1:500, Molecular Probes) applied for 1 hour at RT followed by counterstain with DAPI. Sections were covered with Mowiol.
# clock machinery genes = assay: Microarray and qRT-PCR gene expression after apigenin administration; type: in vivo, mouse
# Excerpt: as §1
# Gene expression and microarray analysis. […] The resulting cDNA (equivalent to 5 ng of total RNA) was amplified using the SYBR Green real-time PCR kit and detected on a Stratagene Mx3005P (Agilent Technologies). […] Relative mRNA levels (2-Ct) were determined by comparing (a) the PCR cycle thresholds (Ct) for the gene of interest and Actb (ΔCt) and (b) ΔCt values for treated and control groups (ΔCt). […]
# gut microbiota [4] = assay: 16S rRNA gene sequencing of gut microbiota, wild-type mice; type: in vivo, mouse
# Excerpt: as §1
# Microbiota analysis. 16S rRNA gene variable region V3 and V4 was amplified using dual indexed fusion primers, in brief primers consist of illumina linker sequence, 12 base barcode sequence and heterogeneity spacer followed by either 16S rRNA gene specific forward (319F: […]; SEQ ID NO: 1) or reverse (806R: […]; SEQ ID NO: 2) primer sequences 29. […] Amplicons quantities were normalized using SEQUALPREP™ kit (Invitrogen) and pooled as a single library. […] Sequencing reads were primarily processed for quality control using the software MOTHUR. Forward and reverse reads were assembled to form contigs, reads not having perfectly matched specific primers and barcodes, having any ambiguous base and more than 8 homopolymers were removed from downstream analysis. Sequences not aligning to desired bacterial V3-V4 variable regions, suspected chimera and likely to be of non-bacterial origin were detected and removed. […] Indicator analysis was performed to identify prominent OTUs contributing to the differences between analysed groups. Non parametric Shannon index of diversity was calculated as a measure of alpha diversity index. Statistical differences were determined by non-parametric Mann-Whitney Test.
# colonic IECs [5] = assay: Colonic IEC proliferation immunostaining (Ki67), Nlrp6-deficient mice; type: in vivo, mouse; conditions: three-week regimen of apigenin
# Excerpt: as §1, §2
# gut microbiota [6] = assay: 16S rRNA gene sequencing of gut microbiota, Nlrp6-deficient mice; type: in vivo, mouse; conditions: apigenin- versus vehicle-treated Nlrp6-deficient mice, ANOSIM p=0.283
# Excerpt: as §1, with “Tissue and blood sampling was performed under LD conditions, with ZTO being the start of the light period (8 a.m.) and ZT12 the vespertinal crepuscule (8 p.m.). Apigenin (750 μg/mouse; Santa Cruz) was intraperitoneally given twice a week at ZT6 for 1 or 3 weeks period.” left out
# Microbiota analysis. […] Amplicons quantities were normalized using SEQUALPREP™ kit (Invitrogen) and pooled as a single library. […] Sequencing reads were primarily processed for quality control using the software MOTHUR. Forward and reverse reads were assembled to form contigs, reads not having perfectly matched specific primers and barcodes, having any ambiguous base and more than 8 homopolymers were removed from downstream analysis. Sequences not aligning to desired bacterial V3-V4 variable regions, suspected chimera and likely to be of non-bacterial origin were detected and removed. […] Indicator analysis was performed to identify prominent OTUs contributing to the differences between analysed groups. […] Statistical differences were determined by non-parametric Mann-Whitney Test.
# DSS-induced colitis [7] = assay: DSS colitis model in Nlrp6-deficient mice pre-treated with apigenin; type: in vivo, mouse
# Excerpt: as §1
# Immunohistochemistry, Immunofluorescence and histological analysis. Intestinal tissue was fixed in formalin, dehydrated in series of increasing concentration of alcohols and toluene before being embedded in paraffin. For immunohistochemistry, 5 μm-thick tissue sections were placed on Superfrost Plus slides (Thermo Scientific), incubated for 10 min at 60° C. and rehydrated through a series of graded alcohols and distilled water. Endogenous peroxidases were blocked by 3% hydrogen peroxide for 10 min. Antigen retrieval was performed in citrate buffer (10 mM, pH 6) by steaming sections in a microwave oven for 20 min. Tissue sections were blocked with 5% BSA/PBS for 30 min at RT and primary Ab against either Ki67 (1:100, ab15580, Abcam), M2 Ab to Flag (1:100, F3165, Sigma) or cleaved caspase3 (1:50, 9661, Cell Signalling) was directly applied and incubated one hour at room temperature (RT) or overnight at 4° C. Slides were washed 3× in PBS before applying either secondary peroxidase-conjugated goat anti-rabbit IgG (1:100, Interchim) or peroxidase conjugated goat anti-mouse IgG (1:100, Interchim) Ab two hours at RT. […]
# [8] = wild-type mice, DSS, apigenin administration
structure (smiles),measurement,setting,value
"O=C(O)c1ccc2c(c1)nc(Nc1cccc(Cl)c1)c1ccncc12 [CX-4945, 5-(3-Chloro-phenylamino)-benzo[c] [2,6] naphthyridine-8-carboxylicacid]",IC50,Csnk2,2 nM
"O=C(O)Cc1c2ccccc2n2c1[nH]c(=O)c1ccccc12 [IQA, 5-oxo-5,6-dihydroindolo-(1,2-a) quinazolin-7-yl acetic acid]",IC50,Csnk2,390 nM
"O=c1c2c(O)cccc2oc2c([N+](=O)[O-])ccc(O)c12 [MNX, 1,8-dihydroxy-4-nitro-xanthen-9-one]",Ki,Csnk2,800 nM
"O=C(O)/C=C/c1cc(Br)c(Br)c(Br)c1Br [TBCA, (E)-3-(2,3,4,5-tetrabromophenyl)acrylic acid]",Ki,Csnk2,77 nM
"Brc1c(Br)c(Br)c2[nH]cnc2c1Br [TBI, 4,5,6,7-1H-tetrabromobenzimidazole]",Ki,Csnk2,300 nM
"CC(C(=O)O)N1C(=O)c2c(I)c(I)c(I)c(I)c2C1=O (stereo not shown) [TID46, 2-(4,5,6,7-tetraiodo-1,3-dioxo-1,3-dihydro-2Hisoindol-2-yl)propanoic acid]",IC50,Csnk2,150 nM
N#CC(=C(/N)Sc1ccccc1N)/C(C#N)=C(\N)Sc1ccccc1N [U0126],growth rate of treated wild-type MEFs versus similarly treated Nlrp6-deficient MEFs,[1],comparable
"O=c1cc(-c2ccc(O)cc2)oc2cc(O)cc(O)c12 [apigenin, 4′,5,7-trihydroxyflavone]",number of caspase-3 positive IECs,colonic IECs [2]; three-week regimen of apigenin,without any change
same,IEC proliferation (Ki67 Ab staining),"colonic IECs [2]; three-week regimen of apigenin (750 μg/mouse, twice a week)",lowered IEC proliferation
same,anti-inflammatory effect,DSS-induced colitis [3]; mice housed in darkness for three circadian cycles during DSS exposure,no anti-inflammatory effect
same,body-weight loss,"DSS-induced colitis [3]; wild-type mice on LD cycles, apigenin 3 weeks (750 μg/mouse, twice a week) before 2% DSS",less severe body-weight loss
same,colon length,DSS-induced colitis [3]; [8],greater colon length
same,disease-activity index,DSS-induced colitis [3]; [8],lower disease-activity index
same,infiltration of inflammatory cells (H&E-stained colon sections),"DSS-induced colitis [3]; wild-type mice, DSS, versus controls",reduced infiltration of inflammatory cells
same,colonic transcript levels of several clock machinery genes (qRT-PCR),"clock machinery genes; apigenin administration, through Nlrp6",significantly influenced
same,genes differentially expressed (microarray),"clock machinery genes; wild-type mice, Logfc of 1.5, upon apigenin administration",54
same,Clostridium sensu stricto and unclassified Ruminococcacceae,gut microbiota [4]; apigenin treatment in wild-type mice,reduction
same,"genera derived from Bacteroidetes (Alistipes, Parasatuerlla, Bacteroides)",gut microbiota [4]; apigenin-induced changes among bacterial OTUs,expansion
same,gut microbiota composition versus controls,"gut microbiota [4]; apigenin-treated wild-type mice, ANOSIM on Jaccard distances, p=0.015",markedly different
same,anti-proliferative effect (Ki67),colonic IECs [5],abrogated
same,global changes in the composition of the gut microbiota,gut microbiota [6],failed to observe global changes
same,wasting disease (body weight loss),DSS-induced colitis [7]; apigenin 3 weeks before 2% DSS,failed to improve wasting disease
same,colon length,"DSS-induced colitis [7]; apigenin, DSS",did not alter colon length
same,inflammation in histological analysis,"DSS-induced colitis [7]; apigenin, DSS",had no effect on inflammation
"Cc1ccc2c(c1S(=O)(=O)O)SC(c1ccc3c(c1)SC(c1ccc(N(C)C)cc1)N3C)N2C (stereo not shown) [compound 1, 2′-(4-Dimethylamino-phenyl)-3,6,3′-trimethyl-[2,6′]bibenzothiazolyl-7-sulfonic acid]",IC50,Csnk2,500 nM
"O=C(O)c1c[nH]c2c(Cl)cc(Cl)c(Cl)c2c1=O [compound 7, 5,6,8-trichloro-4-oxo-1,4-dihydroquinoline-3-carboxylic acid]",Ki,Csnk2,60 nM
"O=C(O)/C=C/c1ccc[c]([Sb](=[O])([OH])[OH])c1 [compound 10, (E)-3-(3-stibonophenyl)prop-2-enoic acid]",IC50,Csnk2,150 nM
"O=C(O)c1cc(Br)c(Br)c(Br)c1 [compound 26, 3,4,5 tribromobenzoic acid]",IC50,Csnk2,640 nM
"O=C(O)c1c(Br)c(Br)c(Br)c(Br)c1-c1c2ccc(=O)cc-2oc2cc(O)ccc12 [compound 35, 2,3,4,5-tetrabromo-6-(6-hydroxy-3-oxo-3H-xanthen-9-yl)-benzoic acid]",IC50,Csnk2,80 nM
"Cc1cc(O)c2c(c1)C(=O)c1cc(O)cc(O)c1C2=O [emodin, 6-methyl-1,3,8-trihydroxyanthraquinone]",Ki,Csnk2,1500 nM
"O=C1C=C2CC3(O)COc4c(ccc(O)c4O)C3=C2C=C1O (stereo not shown) [hematein, 3,4,6a,10-tetrahydroxy-6,7-dihydroindeno[2,1-c] chromen-9-one]",IC50,Csnk2,550 nM
